Data on 13 compounds can be found in ChEMBL document CHEMBL1129361, “Modulators of leukotriene biosynthesis and receptor activation” (J Med Chem, 1996).

Some results are limits rather than exact numbers.

The species entered for data set [1] is Cavia porcellus. Description: Compound was tested for LTD4 induced guinea pig trachea contraction. As to conditions: for Kb: read-out: pA2 (converted). Type of data set: functional.
The species entered for data set [2] is Homo sapiens. Kind of data set: Compound was tested in vitro for inhibitory activity in LTB4 induced neutrophil degranulation. Type of data set: functional.
Data set [3] relates to Cavia porcellus. Description: Compound was tested in vivo for LTB4 induced neutrophil chemotaxis in guinea pig(orally) at duration 5.5 h. It counts as functional. As to conditions: po.
Data set [4] concerns Mus musculus. Kind of data set: Compound was tested in vivo inhibitory activity against PMA induced ear edema. Type of data set: functional.
The species named for data set [5] is Homo sapiens. Kind of data set: Compound was tested for in vitro inhibition on human PMNL. Type of data set: functional.
The test system of data set [6] is Cavia porcellus. Kind of data set: Compound was tested for in vivo inhibition on gp AA bronchospasm. Type of data set: functional. The settings on record: Bronchiole.
Data set [7] in a line: Phase 1 oral half life was determined. It counts as ADME, organism-based. As to conditions: human, in vivo.
Data set [8] concerns Mus musculus. Description: Compound was tested for in vivo inhibition on mouse AA ear edema. It counts as functional.
For data set [9], the species on record is Homo sapiens. Kind of data set: Compound was tested for in vitro inhibition on human whole blood. Type of data set: functional.
In data set [10] the test system is Rattus norvegicus. Description: Compound was tested for in vivo inhibition on rat peritoneal anaphylaxis. It counts as functional.
Data set [11] has as its system Cavia porcellus. Description: Compound was tested for in vivo inhibition on gp antigen bronchospasm. It counts as functional. The settings on record: Bronchiole.
The test system of another data set is RBL-1. Kind of data set: Compound was tested for in vitro inhibition on broken RBL-1. It counts as functional. The settings on record: Rattus norvegicus.
The species named for data set [12] is Homo sapiens. Kind of data set: Compound was tested in vitro inhibitory activity against human neutrophil CD11b/CD18. It counts as functional.
In data set [13] the test system is Rattus norvegicus. Description: Compound was tested for in vivo inhibition against rat antigen bronchospasm. It counts as functional.
For a further data set, the system named is Monkey. Description: Compound was tested for in vivo inhibition against squirrel monkey antigen bronchospasm at 1 mg/kg. The settings on record: Bronchiole, in Primates. It counts as functional.
The test system of data set [14] is Rattus norvegicus. Description: Compound was tested for in vivo inhibition against rat ionophore LTB4 formation. It counts as functional.
Data set [15] is described as follows: Inhibitory activity against LT biosynthesis; […]. It counts as functional.
The species entered for data set [16] is Cavia porcellus. Kind of data set: Compound was evaluated for LTD4 induced against guinea pig trachea contraction. Type of data set: functional.
The target in data set [17] is T1, Cysteinyl leukotriene receptor (Homo sapiens, UniProt Q9Y271+Q9NS75).
T1 sequence (Q9Y271 whole entry): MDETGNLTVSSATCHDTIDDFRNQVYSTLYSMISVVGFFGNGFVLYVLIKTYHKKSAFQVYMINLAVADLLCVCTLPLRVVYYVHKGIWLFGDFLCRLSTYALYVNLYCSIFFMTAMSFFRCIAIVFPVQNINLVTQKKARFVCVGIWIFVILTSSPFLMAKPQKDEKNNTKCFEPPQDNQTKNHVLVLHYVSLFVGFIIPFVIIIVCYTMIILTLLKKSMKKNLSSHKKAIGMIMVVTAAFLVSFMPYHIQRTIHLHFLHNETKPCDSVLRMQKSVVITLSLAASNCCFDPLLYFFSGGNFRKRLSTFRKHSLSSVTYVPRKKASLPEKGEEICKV
T1 sequence (Q9NS75 whole entry): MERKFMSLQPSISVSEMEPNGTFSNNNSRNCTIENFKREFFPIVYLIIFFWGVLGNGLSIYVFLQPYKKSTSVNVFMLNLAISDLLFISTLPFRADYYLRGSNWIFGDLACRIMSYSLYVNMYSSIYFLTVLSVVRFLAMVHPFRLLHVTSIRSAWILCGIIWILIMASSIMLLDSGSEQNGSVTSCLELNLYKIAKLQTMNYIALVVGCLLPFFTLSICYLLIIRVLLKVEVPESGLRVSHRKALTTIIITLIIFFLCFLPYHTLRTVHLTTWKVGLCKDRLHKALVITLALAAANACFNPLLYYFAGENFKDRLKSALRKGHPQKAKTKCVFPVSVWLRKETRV
Kind of data set: Binding affinity against Cysteinyl leukotriene D4 receptor. It counts as protein assay.

Data set [18] concerns Cavia porcellus. Description: Compound was tested in vivo inhibitory activity against LTB4 induced bronchoconstriction in guinea pig(po). It counts as functional.
The subject of data set [19] is Cavia porcellus. Kind of data set: Compound was tested in vivo inhibitory activity against LTB4 induced bronchoconstriction in guinea pig (intravenous). It counts as functional.
In data set [20] the test system is Homo sapiens. Kind of data set: Compound was evaluated for LTD4 induced bronchoconstriction (shift in dose response curve 2 hr after 40 mg oral administration) shift persisted for 24 hrs. It counts as functional.
The species entered for data set [21] is Cavia porcellus. Description: Compound was evaluated for LTD4 induced guinea pig trachea contraction. The settings on record: read-out: pA2 (converted).
Data set [22] deals with Homo sapiens. Description: Compound was evaluated for LTD4 induced bronchoconstriction (shift in dose response curve 2 hr after 40 mg oral administration). It counts as functional.
For data set [23], the target named is T2, Cysteinyl leukotriene receptor 1 (Homo sapiens, UniProt Q9Y271).
T2 sequence (Q9Y271 whole entry): T1 sequence (Q9Y271 whole entry)
Description: Compound were tested for inhibitory activity against Cysteinyl leukotriene D4 receptor.

Data set [24] concerns Homo sapiens. Kind of data set: Fold shift in LTD4 dose response curve following 280 mg intravenous dose in asthmatic patients. It counts as functional.

`CCCCCCCCC/C=C\C=C\[C@@H](SCCC(=O)O)[C@@H](O)c1cccc(-c2nnn[nH]2)c1`: the Kb in the data set listed under Cavia porcellus [1] was 5.01 nM.
Regarding `CCCc1c(OCCCOc2ccc(C(C)=O)c(OC)c2CCC)ccc2c1OC(C(=O)O)CC2` (stereo unspecified) [SC-41390], the IC50 (as a rule, the point on the concentration scale where inhibition reaches its midpoint) in the data set listed under Homo sapiens [2] was 1080 nM. Also, the values for the ED50 in the data set with Cavia porcellus [3] and in the data set on Mus musculus [4] were 1.7 mg/kg and 4200 nM, respectively.
Take `CC(c1cc2ccccc2s1)N(O)C(N)=O` (stereo unspecified) [ZILEUTON]: the IC50 in the data set listed under Homo sapiens [5] was 600 nM; in the data set filed under Homo sapiens [9], 700 nM; in the data set with RBL-1, 100 nM. In addition, the ED50 in the data set on Cavia porcellus [6] came out at 18 mg/kg; with Mus musculus [8], 31 mg/kg; with Rattus norvegicus [10], 3 mg/kg; in the data set with Cavia porcellus [11], 12 mg/kg. The half-life (commonly how long it takes for the measured level to halve) in [7] is 3 h.
`CCc1cc(-c2ccc(F)cc2)c(O)cc1OCCCOc1ccc2c(=O)c3cc(C(=O)O)ccc3oc2c1CCC(=O)O` displayed an IC50 in the data set listed under Homo sapiens [12] of 1.2 nM.
With `CC(C)c1ccc2c(c1)c(SC(C)(C)C)c(CC(C)(C)C(=O)O)n2Cc1ccc(Cl)cc1`, the ED50 with Rattus norvegicus [13] was 0.036 mg/kg; with Rattus norvegicus [14] it was 0.2 mg/kg. In the data set on Monkey, 1 mg/kg produced 85% inhibition in vivo. The compound further had an IC50 in data set [15] of 5 nM.
As for `CCCCCC(O)c1cccc(OCc2ccc3ccccc3n2)c1` (stereo unspecified) [REV-5901], the pKB (as a rule, the negative decadic logarithm of the KB, by convention in mol/L) in the data set filed under Cavia porcellus [16] is 5.5. For the same compound, the Ki (in general, a measure of affinity in units of concentration, obtained from inhibition or displacement) in data set [17] is listed as 700 nM.
As to `CCc1cc(C(C)=O)c(O)cc1OCCCCCC(C)(C)c1nn[nH]n1` [LY-255283], the ED50 in the data set on Cavia porcellus [18] amounted to 11 mg/kg; with Cavia porcellus [19], 2.8 mg/kg.
Turning to `CCCc1c(OCCCC/C=C\C=C\[C@H](Sc2ccc3c(=O)cc(C(=O)[O-])oc3c2)[C@H](O)c2cccc(C(F)(F)F)c2)ccc(C(C)=O)c1O.[Na+]`, in [17], the Ki was found to be 26 nM.
With `COc1cc(C(=O)NS(=O)(=O)c2ccccc2C)ccc1Cc1cn(C)c2ccc(NC(=O)OC3CCCC3)cc12` [ZAFIRLUKAST], the Activity in the data set with Homo sapiens [20] came to 5; with Homo sapiens [22], 117. For the same compound, the Kb in the data set listed under Cavia porcellus [21] was 0.316 nM.
In turn, `CN(C)C(=O)CCS[C@H](SCCC(=O)[O-])c1cccc(/C=C/c2ccc3ccc(Cl)cc3n2)c1.[Na+]` registered a pKB in the data set listed under Cavia porcellus [1] of 8.8. Also, it took 3.1 nM to reach half-maximal inhibition in data set [23] (IC50).
Consider `CC(C)(O)c1ccccc1CC[C@@H](SCC1(CC(=O)O)CC1)c1cccc(/C=C/c2ccc3ccc(Cl)cc3n2)c1` [MONTELUKAST], for which the Kb in the data set listed under Cavia porcellus [1] was 0.501 nM.
`CN(C)C(=O)CCSC(SCCC(=O)[O-])c1cccc(/C=C/c2ccc3ccc(Cl)cc3n2)c1.[Na+]` (stereo unspecified): in the data set on Homo sapiens [24], the Activity was greater than 83. The Ki in [17] stood at 0.2 nM.
Turning to `CCCc1c(OCCCS(=O)(=O)c2ccc(C(=O)CCC(=O)O)cc2)ccc(C(C)=O)c1O` [L-648051], the Ki in data set [17] was 6200 nM.
